Data taken from ChEMBL document CHEMBL4219043, “Beyond the Rule of 5: Lessons Learned from AbbVie's Drugs and Compound Collection” (J Med Chem, 2018).
Values after ≈ are worked out from the molar mass of the structure shown.

How the values were obtained:
Hepatitis C virus [1] = experiment: Antiviral activity against HCV genotype 1a H77 infected in human HuH7 replicon cells after 3 days in absence of human plasma by luciferase reporter gene assay; assay type: functional, organism-based, Hepacivirus hominis; details: genotype 1a H77, Huh-7, 72 h
Hepatitis C virus [2] = experiment: Antiviral activity against HCV genotype 1a H77 infected in human HuH7 replicon cells after 3 days in presence of 40% human plasma by luciferase reporter gene assay; assay type: functional, organism-based, Hepacivirus hominis; details: genotype 1a H77, Huh-7, 72 h
Hepatitis C virus [3] = experiment: Antiviral activity against HCV genotype 1b Con1 infected in human HuH7 replicon cells after 3 days in absence of human plasma by luciferase reporter gene assay; assay type: functional, organism-based, Hepacivirus hominis; details: isolate Con1, Huh-7, 72 h
Hepatitis C virus [4] = experiment: Antiviral activity against HCV genotype 1b Con1 infected in human HuH7 replicon cells after 3 days in presence of 40% human plasma by luciferase reporter gene assay; assay type: functional, organism-based, Hepacivirus hominis; details: isolate Con1, Huh-7, 72 h
Hepatitis C virus [5] = experiment: Antiviral activity against HCV genotype 3a infected in human HuH7 replicon cells after 3 days in absence of human plasma by luciferase reporter gene assay; assay type: functional, organism-based, Hepacivirus hominis; details: Huh-7, 72 h
Hepatitis C virus [6] = experiment: Antiviral activity against HCV genotype 1a H77 harboring NS3 R155K mutant infected in human HuH7 replicon cells after 3 days by luciferase reporter gene assay; assay type: functional, organism-based, Hepacivirus hominis; details: genotype 1a H77, Huh-7, 72 h
Hepatitis C virus [7] = experiment: Antiviral activity against HCV genotype 1a H77 harboring NS3 D168V mutant infected in human HuH7 replicon cells after 3 days by luciferase reporter gene assay; assay type: functional, organism-based, Hepacivirus hominis; details: genotype 1a H77, Huh-7, 72 h
Hepatitis C virus [8] = experiment: Antiviral activity against HCV genotype 1b Con1 harboring NS3 R155K mutant infected in human HuH7 replicon cells after 3 days by luciferase reporter gene assay; assay type: functional, organism-based, Hepacivirus hominis; details: isolate Con1, Huh-7, 72 h
Hepatitis C virus [9] = experiment: Antiviral activity against HCV genotype 1b Con1 harboring NS3 D168V mutant infected in human HuH7 replicon cells after 3 days by luciferase reporter gene assay; assay type: functional, organism-based, Hepacivirus hominis; details: isolate Con1, Huh-7, 72 h
Hepatitis C virus [10] = experiment: Resistance index, ratio of EC50 for HCV genotype 1a H77 harboring NS3 R155K mutant infected in human HuH7 replicon cells to EC50 for HCV genotype 1a H77 harboring wild type NS3 infected in human HuH7 replicon cells; assay type: functional, Hepacivirus hominis
Hepatitis C virus [11] = experiment: Resistance index, ratio of EC50 for HCV genotype 1a H77 harboring NS3 D168V mutant infected in human HuH7 replicon cells to EC50 for HCV genotype 1a H77 harboring wild type NS3 infected in human HuH7 replicon cells; assay type: functional, Hepacivirus hominis
Hepatitis C virus [12] = experiment: Resistance index, ratio of EC50 for HCV genotype 1b Con1 harboring NS3 R155K mutant infected in human HuH7 replicon cells to EC50 for HCV genotype 1b Con1 harboring wild type NS3 infected in human HuH7 replicon cells; assay type: functional, Hepacivirus hominis, isolate Con1
Hepatitis C virus [13] = experiment: Resistance index, ratio of EC50 for HCV genotype 1b Con1 harboring NS3 D168V mutant infected in human HuH7 replicon cells to EC50 for HCV genotype 1b Con1 harboring wild type NS3 infected in human HuH7 replicon cells; assay type: functional, Hepacivirus hominis, isolate Con1
[14] = Half life in iv dosed rat by LC-MS/MS analysis; assay type: ADME, organism-based; details: in vivo
[15] = Plasma clearance in iv dosed rat by LC-MS/MS analysis; assay type: ADME, organism-based
[16] = Half life in po dosed rat by LC-MS/MS analysis; assay type: ADME, organism-based; details: in vivo
Rattus norvegicus = experiment: Dose normalized AUC in po dosed rat after 24 hrs by LC-MS/MS analysis; assay type: ADME, organism-based; details: in vivo
[17] = Oral bioavailability in rat by LC-MS/MS analysis; assay type: ADME, organism-based; details: in vivo
[18] = Half life in dog at 1 mg/kg, iv by LC-MS/MS analysis; assay type: ADME, organism-based, Canis lupus familiaris; details: in vivo
[19] = Plasma clearance in dog at 1 mg/kg, iv by LC-MS/MS analysis; assay type: ADME, organism-based, Canis lupus familiaris
[20] = Half life in dog at 3 mg/kg, po by LC-MS/MS analysis; assay type: ADME, organism-based, Canis lupus familiaris; details: in vivo
Canis familiaris [21] = experiment: Dose normalized AUC in dog at 3 mg/kg, po after 24 hrs by LC-MS/MS analysis; assay type: ADME, organism-based, Canis lupus familiaris; details: in vivo
Canis familiaris [22] = experiment: Fraction of drug absorbed into portal vein in dog at 3 mg/kg, po by LC-MS/MS analysis; assay type: ADME, organism-based, Canis lupus familiaris; details: in vivo
Hepatitis C virus [23] = experiment: Ratio of EC50 in presence of 40% human plasma to EC50 in absence of human plasma for HCV genotype 1a H77 infected in human HuH7 replicon cells; assay type: functional, Hepacivirus hominis
[24] = Solubility in pH 7.2 buffer; assay type: physicochemical
[25] = Apparent permeability of the compound by PAMPA; assay type: ADME
[26] = Ratio of EC50 for HCV genotype 3a infected in human HuH7 replicon cells to EC50 for HCV genotype 1a H77 infected in human HuH7 replicon cells; assay type: functional
[27] = Oral bioavailability in dog at 3 mg/kg by LC-MS/MS analysis; assay type: ADME, organism-based, Canis lupus familiaris; details: in vivo

Row | Structure (SMILES) | EC50 (Hepatitis C virus [1]) | EC50 (Hepatitis C virus [2]) | EC50 (Hepatitis C virus [3]) | EC50 (Hepatitis C virus [4]) | EC50 (Hepatitis C virus [5]) | EC50 (Hepatitis C virus [7]) | Ratio EC50 (Hepatitis C virus [10]) | Ratio EC50 (Hepatitis C virus [11]) | Ratio EC50 (Hepatitis C virus [12]) | Ratio EC50 (Hepatitis C virus [13]) | half-life [14] | clearance [15] | half-life [16] | AUC/dose (Rattus norvegicus) | bioavailability [17] | half-life [18] | clearance [19] | half-life [20] | AUC/dose (Canis familiaris [21]) | FaFg (Canis familiaris [22]) | also measured
1 | Cc1cc(C(=O)N[C@H]2CCCCC/C=C\[C@@H]3C[C@@]3(C(=O)NS(=O)(=O)C3(C)CC3)NC(=O)[C@@H]3C[C@@H](Oc4nc5cc(F)ccc5nc4C(F)(F)F)CN3C2=O)no1 | 0.7 nM | 9 nM | 0.5 nM | 11 nM | 124 nM | 14 nM | 3 | 127 | 1 | 4 | 4.1 h | 26.7 mL/min/kg | 4.7 h | 0.19 µg·h/mL | 27% | 2.9 h | 0.333 mL/min/kg | 2.9 h | 46.8 µg·h/mL | 0.9 | EC50 (Hepatitis C virus [6]): 0.3 nM; EC50 (Hepatitis C virus [8]): 0.4 nM; EC50 (Hepatitis C virus [9]): 1.3 nM; Ratio EC50 (Hepatitis C virus [23]): 6 - 35; Solubility [24]: 20.6 µM (≈ 16.6 µg/mL); Papp [25]: 12.1 ×10⁻⁶ cm/s
2 | Cc1cc(C(=O)N[C@H]2CCCCC/C=C\[C@@H]3C[C@@]3(C(=O)NS(=O)(=O)C3CC3)NC(=O)[C@@H]3C[C@@H](Oc4nc5cc(F)ccc5nc4C(F)(F)F)CN3C2=O)no1 | 0.8 nM | 7 nM | 0.5 nM | 7 nM | 64 to 83 nM | 14 nM | 3 | 149 | 1 | 5 | 2.1 h | 38.3 mL/min/kg | 1.9 h | 0.14 µg·h/mL | 28% | 3.5 h | 0.667 mL/min/kg | 2.2 h | 18 µg·h/mL | 0.8 | Ratio EC50 [26]: >80; EC50 (Hepatitis C virus [6]): 0.3 nM; EC50 (Hepatitis C virus [9]): 1.5 nM; Ratio EC50 (Hepatitis C virus [23]): 6 - 35; Solubility [24]: 155 µM (≈ 123 µg/mL); Papp [25]: 5.1 ×10⁻⁶ cm/s
3 | Cn1ccc(C(=O)N[C@H]2CCCCC/C=C\[C@@H]3C[C@@]3(C(=O)NS(=O)(=O)C3(C)CC3)NC(=O)[C@@H]3C[C@@H](Oc4nc5cc(OC(F)(F)F)ccc5c5ccc(F)cc45)CN3C2=O)n1 | 0.2 nM | 7 nM | 0.1 nM | 3 nM | 0.3 to 0.8 nM | 3 nM | 65 | 97 | 0.5 | 2 | 5 h | 18.3 mL/min/kg | 4.6 h | 0.4 µg·h/mL | 43% | 3.2 h | 0.167 mL/min/kg | 4 h | 138 µg·h/mL | 0.8 | Ratio EC50 [26]: <=10; EC50 (Hepatitis C virus [6]): 2 nM; EC50 (Hepatitis C virus [8]): 0.03 nM; bioavailability [27]: 81%; Ratio EC50 (Hepatitis C virus [23]): >30; Solubility [24]: 0.65 µM (≈ 0.565 µg/mL); Papp [25]: 0.06 ×10⁻⁶ cm/s
4 | CC(=O)N(C)[C@@H](CC(C)(C)C)C(=O)N[C@H]1CCCCC/C=C\[C@@H]2C[C@@]2(C(=O)NS(=O)(=O)C2(C)CC2)NC(=O)[C@@H]2C[C@@H](Oc3nc4cc(F)ccc4c4ccccc34)CN2C1=O | 0.5 nM | 7 nM | 2 nM | 12 nM | 4 to 8 nM | 0.4 nM | 0.8 | 2 | 33 | 11 | 1.7 h | 51.7 mL/min/kg | 1.5 h | 0.09 µg·h/mL | 27% | 2.2 h | 1.17 mL/min/kg | 2.1 h | 11.6 µg·h/mL | 0.8 | EC50 (Hepatitis C virus [6]): 0.6 nM; EC50 (Hepatitis C virus [8]): 8 nM; EC50 (Hepatitis C virus [9]): 3 nM; bioavailability [27]: 76%; Ratio EC50 (Hepatitis C virus [23]): 6 - 35; Solubility [24]: 2.2 µM (≈ 1.89 µg/mL); Papp [25]: 0.28 ×10⁻⁶ cm/s
5 | Cc1cc(C(=O)N[C@H]2CCCCC/C=C\[C@@H]3C[C@@]3(C(=O)NS(=O)(=O)C3(C)CC3)NC(=O)[C@@H]3C[C@@H](Oc4nc5ccccc5c5ccc(F)cc45)CN3C2=O)no1 | 0.7 nM | 6 nM | 0.5 nM | 8 nM | 4 to 7 nM | 8 nM | 18 | 168 | 4 | 9 | 3.2 h | 41.7 mL/min/kg | 3.5 h | 0.16 µg·h/mL | 40% | 2.3 h | 0.333 mL/min/kg | 2 h | 85 µg·h/mL | 1.4 | EC50 (Hepatitis C virus [8]): 0.4 nM; EC50 (Hepatitis C virus [9]): 0.9 nM; bioavailability [27]: 140%; Ratio EC50 (Hepatitis C virus [23]): 6 - 35; Solubility [24]: 1.9 µM (≈ 1.5 µg/mL); Papp [25]: 0.19 ×10⁻⁶ cm/s
